Our source for the thermal stability z-score values is the supplement of paper PMC12463676, “Small-molecule dissolution of stress granules by redox modulation benefits ALS models” (Nature Chemical Biology, 2025).

Compound in one assay: O=[As]([O-])(O)O.[K+] [potassium arsenate]
As to the kind of experiment: thermal stability z-score vs DMSO; higher = more thermally stabilized by treatment. The conditions noted are these: HeLa; arsenate concentration 1 mM. How it is done:
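Cellular thermal proteome profiling in HeLa cells treated with 1 mM arsenate for 1 h (DMSO pretreatment), heated to ten temperatures (37-66.3 °C). Soluble protein was quantified by TMT mass spectrometry relative to DMSO controls; the thermal stability score was transformed to a z-score; mean of n = 3 experiments.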

Compound in the next assay: NC(=O)CCCCC1CCSS1 [lipoamide]
The assay is described as above. The conditions noted are these: HeLa, lipoamide concentration 100 µM. As for the experimental part:
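Cellular thermal proteome profiling in HeLa cells. Cells were treated with 100 µM lipoamide for 1 h, with or without 1 mM arsenate for a further 1 h, then heated to ten temperatures (37-66.3 °C), and soluble protein was quantified by TMT mass spectrometry relative to 0.1% DMSO controls. The thermal stability score (sum of log2 fold changes minus the abundance score) was transformed to a z-score; mean of n = 3 experiments.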

The mark [1] stands for this setting: arsenate co-treatment: 1 mM arsenate 1 h.
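Also: each temperature applied for 3 min, abundance score taken as mean log2 fold change at the two lowest temperatures, z-score obtained by mean subtraction and division by SD.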

Chain of UniProt Q96IY1 (Q96IY1 whole entry): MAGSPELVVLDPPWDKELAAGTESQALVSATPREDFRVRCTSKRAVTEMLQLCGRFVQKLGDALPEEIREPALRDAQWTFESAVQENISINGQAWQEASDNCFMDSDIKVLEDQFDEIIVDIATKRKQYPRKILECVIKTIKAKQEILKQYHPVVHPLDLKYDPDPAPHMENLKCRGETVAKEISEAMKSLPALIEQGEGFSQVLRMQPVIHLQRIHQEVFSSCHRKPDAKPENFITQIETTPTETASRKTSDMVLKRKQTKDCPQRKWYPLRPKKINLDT
Chain of UniProt P09914 (P09914 whole entry): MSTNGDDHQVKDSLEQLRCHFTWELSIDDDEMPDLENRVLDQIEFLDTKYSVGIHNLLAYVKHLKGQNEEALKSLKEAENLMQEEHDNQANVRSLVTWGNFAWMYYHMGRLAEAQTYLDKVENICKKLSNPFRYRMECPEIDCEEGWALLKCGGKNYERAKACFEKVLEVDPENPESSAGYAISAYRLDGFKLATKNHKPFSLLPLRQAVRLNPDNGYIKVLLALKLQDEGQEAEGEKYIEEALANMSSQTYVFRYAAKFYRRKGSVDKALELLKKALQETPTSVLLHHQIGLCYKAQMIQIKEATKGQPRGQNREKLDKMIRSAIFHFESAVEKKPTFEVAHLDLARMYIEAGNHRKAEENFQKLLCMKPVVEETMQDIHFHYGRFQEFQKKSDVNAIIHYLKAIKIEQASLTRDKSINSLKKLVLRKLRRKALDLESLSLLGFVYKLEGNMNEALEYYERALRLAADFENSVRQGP
Chain of UniProt Q16637 (Q16637 whole entry): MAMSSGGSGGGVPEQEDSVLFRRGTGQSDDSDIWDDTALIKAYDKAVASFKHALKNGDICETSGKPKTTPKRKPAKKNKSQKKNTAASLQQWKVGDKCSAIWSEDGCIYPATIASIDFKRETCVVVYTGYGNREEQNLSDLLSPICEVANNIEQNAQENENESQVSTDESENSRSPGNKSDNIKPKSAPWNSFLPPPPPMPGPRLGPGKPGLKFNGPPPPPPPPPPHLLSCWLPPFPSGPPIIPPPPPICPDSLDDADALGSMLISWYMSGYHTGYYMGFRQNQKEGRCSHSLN
Chain of UniProt Q9NY93 (Q9NY93 whole entry): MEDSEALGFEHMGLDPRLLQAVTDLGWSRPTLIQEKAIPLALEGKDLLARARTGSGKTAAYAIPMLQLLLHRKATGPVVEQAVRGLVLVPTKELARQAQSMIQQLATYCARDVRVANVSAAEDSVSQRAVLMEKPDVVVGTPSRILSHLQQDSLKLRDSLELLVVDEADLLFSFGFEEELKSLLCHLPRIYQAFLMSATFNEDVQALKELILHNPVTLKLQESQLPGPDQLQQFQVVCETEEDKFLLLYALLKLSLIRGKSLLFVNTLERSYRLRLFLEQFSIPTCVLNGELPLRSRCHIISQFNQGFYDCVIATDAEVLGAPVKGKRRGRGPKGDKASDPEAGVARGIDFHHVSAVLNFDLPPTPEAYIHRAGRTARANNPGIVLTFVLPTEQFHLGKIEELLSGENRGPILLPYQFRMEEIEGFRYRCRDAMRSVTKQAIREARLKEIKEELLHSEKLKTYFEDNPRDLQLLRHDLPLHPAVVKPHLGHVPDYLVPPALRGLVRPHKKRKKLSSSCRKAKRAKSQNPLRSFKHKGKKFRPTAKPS
Chain of UniProt P23284 (P23284 whole entry): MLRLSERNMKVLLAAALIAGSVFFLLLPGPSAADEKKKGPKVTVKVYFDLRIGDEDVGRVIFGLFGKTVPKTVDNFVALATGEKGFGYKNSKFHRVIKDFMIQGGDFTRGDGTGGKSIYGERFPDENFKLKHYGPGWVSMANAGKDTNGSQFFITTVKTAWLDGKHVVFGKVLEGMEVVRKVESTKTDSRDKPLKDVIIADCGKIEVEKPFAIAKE
Chain of UniProt P32929 (P32929 whole entry): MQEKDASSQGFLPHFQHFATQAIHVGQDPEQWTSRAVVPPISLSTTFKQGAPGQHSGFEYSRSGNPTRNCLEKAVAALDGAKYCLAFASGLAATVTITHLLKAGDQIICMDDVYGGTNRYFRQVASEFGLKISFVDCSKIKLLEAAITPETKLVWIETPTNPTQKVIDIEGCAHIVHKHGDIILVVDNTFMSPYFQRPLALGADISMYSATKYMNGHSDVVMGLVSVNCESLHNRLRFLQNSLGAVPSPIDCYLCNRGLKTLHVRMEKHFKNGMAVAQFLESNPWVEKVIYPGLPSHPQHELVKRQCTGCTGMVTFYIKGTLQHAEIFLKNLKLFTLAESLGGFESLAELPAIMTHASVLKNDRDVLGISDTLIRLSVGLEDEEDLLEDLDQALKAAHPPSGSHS
Chain of UniProt Q08945 (Q08945 whole entry): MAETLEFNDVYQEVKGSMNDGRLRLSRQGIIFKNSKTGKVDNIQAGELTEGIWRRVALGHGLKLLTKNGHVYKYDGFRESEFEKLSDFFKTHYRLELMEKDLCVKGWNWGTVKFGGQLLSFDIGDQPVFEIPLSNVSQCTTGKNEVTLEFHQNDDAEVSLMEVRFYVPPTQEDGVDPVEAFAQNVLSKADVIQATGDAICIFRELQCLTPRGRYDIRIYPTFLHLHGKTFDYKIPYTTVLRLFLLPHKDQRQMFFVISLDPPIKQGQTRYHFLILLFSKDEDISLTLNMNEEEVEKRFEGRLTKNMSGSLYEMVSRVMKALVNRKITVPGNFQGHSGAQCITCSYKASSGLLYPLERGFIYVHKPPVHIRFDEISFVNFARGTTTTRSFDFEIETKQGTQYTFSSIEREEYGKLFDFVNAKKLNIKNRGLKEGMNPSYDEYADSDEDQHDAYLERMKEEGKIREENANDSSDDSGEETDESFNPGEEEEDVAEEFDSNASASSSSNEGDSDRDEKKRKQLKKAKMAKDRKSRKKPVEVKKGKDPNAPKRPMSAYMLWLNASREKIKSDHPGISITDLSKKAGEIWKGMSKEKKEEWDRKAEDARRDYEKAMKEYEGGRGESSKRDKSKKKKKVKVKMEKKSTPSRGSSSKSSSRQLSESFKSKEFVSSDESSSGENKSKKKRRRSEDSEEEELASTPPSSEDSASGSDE
Chain of UniProt O94919 (O94919 whole entry): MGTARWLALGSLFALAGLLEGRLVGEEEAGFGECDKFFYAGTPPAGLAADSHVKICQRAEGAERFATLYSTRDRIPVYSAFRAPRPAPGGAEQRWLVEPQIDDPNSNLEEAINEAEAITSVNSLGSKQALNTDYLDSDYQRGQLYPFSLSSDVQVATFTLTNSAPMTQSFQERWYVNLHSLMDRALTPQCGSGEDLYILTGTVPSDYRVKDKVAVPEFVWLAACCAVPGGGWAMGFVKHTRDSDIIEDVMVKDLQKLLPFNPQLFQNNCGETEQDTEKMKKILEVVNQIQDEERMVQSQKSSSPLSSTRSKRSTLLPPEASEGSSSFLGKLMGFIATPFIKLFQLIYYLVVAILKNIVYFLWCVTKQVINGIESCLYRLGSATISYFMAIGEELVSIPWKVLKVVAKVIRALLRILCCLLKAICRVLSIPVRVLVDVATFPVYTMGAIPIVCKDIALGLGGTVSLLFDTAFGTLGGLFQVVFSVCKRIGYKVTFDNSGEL
Chain of UniProt Q13895 (Q13895 whole entry): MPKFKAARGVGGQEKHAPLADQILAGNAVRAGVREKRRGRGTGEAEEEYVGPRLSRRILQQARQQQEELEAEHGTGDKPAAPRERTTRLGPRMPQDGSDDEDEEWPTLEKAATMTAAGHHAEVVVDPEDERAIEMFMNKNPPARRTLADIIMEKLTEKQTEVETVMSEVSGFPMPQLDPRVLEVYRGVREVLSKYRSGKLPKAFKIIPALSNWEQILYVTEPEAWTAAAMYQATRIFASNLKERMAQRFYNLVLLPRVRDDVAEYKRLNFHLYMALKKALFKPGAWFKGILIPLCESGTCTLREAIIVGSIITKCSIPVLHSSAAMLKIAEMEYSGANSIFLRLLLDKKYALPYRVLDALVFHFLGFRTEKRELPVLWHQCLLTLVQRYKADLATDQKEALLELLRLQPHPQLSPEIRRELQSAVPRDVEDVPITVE
Chain of UniProt Q8TCT9 (Q8TCT9 whole entry): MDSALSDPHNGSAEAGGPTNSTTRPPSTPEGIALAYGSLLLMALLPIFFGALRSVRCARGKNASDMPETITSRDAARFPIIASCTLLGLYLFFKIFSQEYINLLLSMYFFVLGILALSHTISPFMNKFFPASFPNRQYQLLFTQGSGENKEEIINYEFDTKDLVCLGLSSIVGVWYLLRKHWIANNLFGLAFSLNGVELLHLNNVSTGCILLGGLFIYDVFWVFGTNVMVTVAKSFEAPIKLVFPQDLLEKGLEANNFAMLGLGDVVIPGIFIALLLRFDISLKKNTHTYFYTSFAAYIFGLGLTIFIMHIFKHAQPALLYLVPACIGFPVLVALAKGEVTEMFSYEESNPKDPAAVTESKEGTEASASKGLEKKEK
Chain of UniProt Q96C90 (Q96C90 whole entry): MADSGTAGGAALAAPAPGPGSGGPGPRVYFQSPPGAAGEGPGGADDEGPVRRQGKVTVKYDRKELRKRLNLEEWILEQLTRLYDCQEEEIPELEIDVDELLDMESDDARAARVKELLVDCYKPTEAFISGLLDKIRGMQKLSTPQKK
Chain of UniProt Q8NEZ2 (Q8NEZ2 whole entry): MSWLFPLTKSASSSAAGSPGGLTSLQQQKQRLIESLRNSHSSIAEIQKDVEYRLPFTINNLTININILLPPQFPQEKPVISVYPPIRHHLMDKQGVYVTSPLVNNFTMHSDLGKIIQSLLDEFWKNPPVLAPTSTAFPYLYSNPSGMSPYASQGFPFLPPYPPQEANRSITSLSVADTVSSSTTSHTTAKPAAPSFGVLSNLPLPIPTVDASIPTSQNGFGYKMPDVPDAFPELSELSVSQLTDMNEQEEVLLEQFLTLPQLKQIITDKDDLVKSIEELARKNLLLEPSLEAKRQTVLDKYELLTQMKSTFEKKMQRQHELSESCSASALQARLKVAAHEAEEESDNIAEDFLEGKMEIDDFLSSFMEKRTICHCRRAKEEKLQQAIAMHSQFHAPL
Chain of UniProt P10599 (P10599 whole entry): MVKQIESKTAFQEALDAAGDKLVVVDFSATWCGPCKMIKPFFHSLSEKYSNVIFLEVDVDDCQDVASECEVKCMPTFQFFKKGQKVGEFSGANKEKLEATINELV

Turning to ZC3H8 (UniProt Q8N5P1), the thermal stability z-score in the assay with potassium arsenate was -0.576; with lipoamide (setting [1]) it was -0.0194; with lipoamide (arsenate co-treatment: none), -0.277.
The matching figures for TRAPPC10 (UniProt P48553): 0.381, 0.191 and 0.411.
The like results for SSRP1 (UniProt Q08945) were, in that order, 1.4, 1.24 and 2.15.
The like results for SH3D19 (UniProt Q5HYK7) were, in that order, 0.228, 0.277 and 0.225.
Turning to PPP1R18 (UniProt Q6NYC8), the thermal stability z-score in the assay with potassium arsenate was 0.444; in the assay with lipoamide (setting [1]) it was -0.336; in the assay with lipoamide (arsenate co-treatment: none), 0.0646.
Consider VPS37A (UniProt Q8NEZ2), for which the thermal stability z-score in the assay with potassium arsenate turned out to be 0.0736; in the assay with lipoamide (setting [1]) it was 0.0547; in the assay with lipoamide (arsenate co-treatment: none) it was 0.243.
Turning to DMWD (UniProt Q09019), the thermal stability z-score in the assay with potassium arsenate is 0.407; with lipoamide (setting [1]), 0.459; in the assay with lipoamide (arsenate co-treatment: none) it was -0.167.
The like results for HYI (UniProt Q5T013) were, in that order, 0.524, 1.85 and 0.651.
As to TXN (UniProt P10599), the values for the thermal stability z-score with potassium arsenate, with lipoamide (setting [1]) and in the assay with lipoamide (arsenate co-treatment: none) were 0.598, 0.913 and 0.827, respectively.
The matching figures for FOXRED2 (UniProt Q8IWF2): 0.897, -1.43 and -1.2.
The matching figures for MRPL45 (UniProt Q9BRJ2): 0.214, -0.181 and 0.0671.
Consider UBE4B (UniProt O95155), for which the thermal stability z-score with potassium arsenate was 0.599; with lipoamide (setting [1]), -0.444; with lipoamide (arsenate co-treatment: none) it was -0.412.
The matching figures for POLR3B (UniProt Q9NW08): 0.309, 0.417 and 0.0689.
The like results for CTH (UniProt P32929) were, in that order, 0.596, 0.473 and 0.559.
The like results for UniProt E7ENQ6 were, in that order, 0.151, -0.462 and -0.272.
Regarding SLC9A3R1 (UniProt O14745), the thermal stability z-score with potassium arsenate was -0.36; with lipoamide (setting [1]) it was 0.348; in the assay with lipoamide (arsenate co-treatment: none), 0.362.
The matching figures for DDX56 (UniProt Q9NY93): 0.917, -0.847 and -0.217.
The matching figures for ABCC2 (UniProt Q92887): -0.256, 1.06 and 1.14.
The matching figures for CHMP3 (UniProt Q9Y3E7): 0.291, 0.271 and 0.481.
Consider BYSL (UniProt Q13895), for which the thermal stability z-score in the assay with potassium arsenate was 0.424; with lipoamide (setting [1]), -0.197; with lipoamide (arsenate co-treatment: none), 0.349.
The matching figures for TRMU (UniProt O75648): -0.558, -0.59 and -0.509.
The like results for ENDOD1 (UniProt O94919) were, in that order, 0.443, -1.14 and -0.77.
The matching figures for EXOC2 (UniProt Q96KP1): 0.575, -0.195 and -0.453.
Regarding LNP (UniProt Q9C0E8), the figures for the thermal stability z-score with potassium arsenate, with lipoamide (setting [1]) and with lipoamide (arsenate co-treatment: none) were -0.997, -1.09 and -0.771, respectively.
The like results for KLHDC3 (UniProt Q9BQ90) were, in that order, 1.05, 0.45 and -0.351.
The matching figures for MARC2 (UniProt Q969Z3): 0.168, 0.235 and 0.311.
The matching figures for CCBL1|KYAT1: 0.447, 0.0425 and 0.343.
As for C16ORF13 (UniProt Q96S19), the thermal stability z-score with potassium arsenate worked out at 0.536; with lipoamide (setting [1]), 0.306; with lipoamide (arsenate co-treatment: none), 0.154.
The matching figures for IFIT1 (UniProt P09914): 0.419, -0.626 and -0.265.
The like results for PPP1R14B (UniProt Q96C90) were, in that order, -0.284, 0.068 and 0.535.
As to ZMYM4 (UniProt Q5VZL5), the thermal stability z-score is -0.646 in the assay with potassium arsenate, -0.347 with lipoamide (setting [1]) and 0.0509 in the assay with lipoamide (arsenate co-treatment: none).
The matching figures for TSEN34 (UniProt Q9BSV6): -0.292, -1.1 and 0.117.
As to MRPS18A (UniProt Q9NVS2), the thermal stability z-score with potassium arsenate was 0.196; with lipoamide (setting [1]) it was -0.573; in the assay with lipoamide (arsenate co-treatment: none) it was -0.402.
For KCTD10 (UniProt Q9H3F6), the thermal stability z-score with potassium arsenate was found to be 1.06; with lipoamide (setting [1]) it was 0.997; with lipoamide (arsenate co-treatment: none), 0.63.
As for NECTIN2 (UniProt Q92692), the values for the thermal stability z-score with potassium arsenate, with lipoamide (setting [1]) and with lipoamide (arsenate co-treatment: none) were 0.0945, 0.434 and 0.196, respectively.
The like results for NANS (UniProt Q9NR45) were, in that order, 0.887, 0.185 and 0.107.
The matching figures for SIRT6 (UniProt Q8N6T7): -0.21, -0.0481 and -0.176.
The like results for HM13 (UniProt Q8TCT9) were, in that order, 0.759, 0.0446 and -0.0484.
In the case of PPIB (UniProt P23284), the values for the thermal stability z-score in the assay with potassium arsenate, in the assay with lipoamide (setting [1]) and with lipoamide (arsenate co-treatment: none) were 0.559, -3.74 and -2.72, respectively.
The matching figures for SMN1 (UniProt Q16637): -0.434, 0.304 and 0.798.
The like results for PWP2 (UniProt Q15269) were, in that order, 0.864, -0.256 and 0.154.
In the case of RB1CC1 (UniProt Q8TDY2), the thermal stability z-score with potassium arsenate is 0.893; in the assay with lipoamide (setting [1]) it was -0.502; with lipoamide (arsenate co-treatment: none) it was -0.143.
The like results for NSL1 (UniProt Q96IY1) were, in that order, -0.0597, 0.254 and -0.0663.
